Laboratory results taken from ChEMBL document CHEMBL5053502, “Too Hot to Handle: Antibacterial Peptides Identified in Ghost Pepper” (J Nat Prod, 2021).
≈ marks a conversion by molar mass, not a printed value. Calls of active or inactive are those of the source. No cut-off for these calls is given here. Where a SMILES comes first, the peptide text is derived from it. Bridges are numbered along the chain shown (N, C = ends). [ ]: non-standard residue; d: D form. pGlu = O=C1CC[C@@H](C(=O)O)N1

Assays:
[1] = test system: Cell membrane; experiment: Induction of outer membrane permeabilization in Escherichia coli ATCC 25922 assessed as increase in NPN uptake at 10 to 40 uM by NPN-dye based fluorescence analysis; type: subcellular; details: dose 10-40 µM
[2] = test system: Acinetobacter baumannii; experiment: Bactericidal activity against Acinetobacter baumannii 5075 assessed as reduction in cell viability incubated for 24 hrs; type: functional
[3] = test system: Escherichia coli; experiment: Antibacterial activity against Escherichia coli ATCC 25922 assessed as bacterial growth inhibition incubated for 4 hrs followed by resazurin addition and measured after 1 hr by fluorescence based analysis; type: functional, organism-based
[4] = Hemolytic activity in human RBC assessed as hemolysis at 2.5 to 40 uM incubated for 1 hr by absorbance based analysis; type: ADME, tissue-based; details: erythrocyte, dose 2.5-40 µM
[5] = test system: Cell membrane; experiment: Induction of inner membrane permeabilization in Escherichia coli ATCC 25922 assessed as increase in absorbance at 420 nm in presence of ONPG by absorbance based assay; type: subcellular
[6] = test system: Pseudomonas aeruginosa; experiment: Antibacterial activity against Pseudomonas aeruginosa 1423 assessed as bacterial growth inhibition incubated for 7 hrs by absorbance based analysis; details: Pseudomonas aeruginosa, 1423, 7 h
[7] = test system: Klebsiella pneumoniae; experiment: Antibacterial activity against Klebsiella pneumoniae VK148 assessed as bacterial growth inhibition incubated for 4 hrs followed by resazurin addition and measured after 1 hr by fluorescence based analysis
[8] = test system: Acinetobacter baumannii; experiment: Antibacterial activity against Acinetobacter baumannii 5075 assessed as bacterial growth inhibition incubated for 5 hrs by absorbance based analysis; type: functional, organism-based; details: Acinetobacter baumannii, 5075, 5 h

| Activity [1] | Activity [5] | SMILES | MBC [2] | IC50 [3] | Activity [4] | IC50 [6] | IC50 [7] | IC50 [8] |
| --- | --- | --- | --- | --- | --- | --- | --- | --- |
| 100% | Active | CC[C@H](C)[C@@H]1NC(=O)[C@@H]2CSSC[C@H](NC(=O)[C@H](CCCCN)NC(=O)[C@H](C)NC(=O)[C@H](CCSC)NC(=O)[C@@H](NC(=O)[C@@H](NC(=O)[C@@H]3CCCN3C(=O)[C@H](CC(=O)O)NC(=O)[C@H](CC(C)C)NC(=O)[C@@H](NC(=O)[C@H](CCC(=O)O)NC(=O)[C@@H]3CCC(=O)N3)[C@@H](C)O)[C@@H](C)CC)CSSC[C@@H](C(=O)N[C@H](C(=O)N[C@@H](CC(C)C)C(=O)O)C(C)C)NC(=O)CNC(=O)[C@H](C)NC1=O)C(=O)N[C@@H](C(C)C)C(=O)N[C@@H](CC(C)C)C(=O)N[C@@H](CCCCN)C(=O)N[C@H]1CSSC[C@H](NC(=O)[C@H](Cc3c[nH]c4ccccc34)NC(=O)[C@H](C)NC(=O)[C@H](CCCCN)NC(=O)[C@H](CCCCN)NC(=O)CNC1=O)C(=O)N[C@@H](CC(C)C)C(=O)N[C@@H]([C@@H](C)O)C(=O)N[C@@H](CCCCN)C(=O)N2 ([pGlu]ETLDPICMAKCVLKCGKKAWCLTKCIAGCVL-OH; disulfide 8-30, 12-26, 16-22) | 8.6 µM (≈ 29.7 µg/mL) | 14.5 µM | Non-Toxic | 6.9 µM | 13.2 µM | 4 µM |
| – | – | CC[C@H](C)[C@H](NC(=O)[C@H](CCCCN)NC(=O)CNC(=O)[C@H](CC(C)C)NC(=O)CNC(=O)[C@H](CCCCN)NC(=O)[C@@H](NC(=O)[C@H](CC(C)C)NC(=O)[C@H](Cc1cnc[nH]1)NC(=O)[C@H](CCCNC(=N)N)NC(=O)CNC(=O)[C@@H](NC(=O)[C@@H](N)CCCCN)C(C)C)C(C)C)C(=O)N[C@@H](Cc1ccccc1)C(=O)N[C@@H](CCCNC(=N)N)C(=O)N[C@@H](C)C(=O)NCC(=O)N[C@H](CCCCN)C(=O)N[C@@H](C(=O)N[C@H](C(=O)N[C@@H](Cc1ccccc1)C(=O)N[C@H]1CSSC[C@@H](C(=O)N[C@@H](CCCCN)C(=O)N[C@H](C(=O)N[C@H]2CSSC[C@@H](C(=O)N[C@@H](C)C(=O)O)NC(=O)[C@@H]3CSSC[C@H](NC(=O)[C@H](CC(C)C)NC(=O)CNC(=O)[C@H](CC(N)=O)NC2=O)C(=O)N[C@@H](CC(=O)O)C(=O)N[C@@H](Cc2ccc(O)cc2)C(=O)N3)[C@@H](C)O)NC(=O)[C@H]([C@@H](C)O)NC(=O)[C@H](CC(N)=O)NC1=O)[C@@H](C)CC)C(C)C | – | 7.6 µM | – | – | – | – |
